In ChEMBL document CHEMBL5241058, “Pyrazole-based analogs as potential antibacterial agents against methicillin-resistance staphylococcus aureus (MRSA) and its SAR elucidation” (Eur J Med Chem, 2021):
≈ marks a conversion by molar mass, not a printed value. Each block holds one molecule with its values, some of them ahead of it.

How the values were obtained:
Assay type in all cases: functional
[1] = system: Staphylococcus aureus; assay: Antibiofilm activity against Methicillin-resistant Staphylococcus aureus USA 300 relative to control
[2] = system: Staphylococcus aureus; assay: Antimicrobial activity against Methicillin-resistant Staphylococcus aureus ATCC 33599 assessed as bacterial growth inhibition
[3] = system: Staphylococcus aureus; assay: Antimicrobial activity against Methicillin-resistant Staphylococcus aureus CCARM 3506 assessed as bacterial growth inhibition incubated for 24 hrs by ELISA assay
[4] = system: Staphylococcus aureus; assay: Antimicrobial activity against Methicillin-resistant Staphylococcus aureus ATCC 43300 assessed as bacterial growth inhibition incubated for 24 hrs by microdilution method; settings: ATCC43300
[5] = system: Staphylococcus aureus; assay: Antimicrobial activity against Methicillin-resistant Staphylococcus aureus assessed as bacterial growth inhibition
[6] = system: Staphylococcus aureus; assay: Antimicrobial activity against Methicillin-resistant Staphylococcus aureus assessed as bacterial growth inhibition incubated for 24 to 48 hrs by microdilution method; settings: time 24-48 hrs
[7] = system: Pseudomonas aeruginosa; assay: Antimicrobial activity against Pseudomonas aeruginosa ATCC 27853 assessed as bacterial growth inhibition incubated for 18 hrs by microdilution method
[8] = system: Klebsiella pneumoniae; assay: Antimicrobial activity against Klebsiella pneumoniae ATCC 314588 assessed as bacterial growth inhibition incubated for 18 hrs by microdilution method
[9] = system: Salmonella enterica subsp. enterica; assay: Antimicrobial activity against Salmonella typhimurium […] assessed as bacterial growth inhibition incubated for 18 hrs by microdilution method
[10] = system: Escherichia coli; assay: Antimicrobial activity against Escherichia coli ATCC 8739 assessed as bacterial growth inhibition incubated for 18 hrs by microdilution method
[11] = system: Staphylococcus aureus; assay: Antimicrobial activity against vancomycin intermediate-resistant Staphylococcus aureus assessed as bacterial growth inhibition incubated for 24 hrs by microdilution method
[12] = system: Staphylococcus aureus; assay: Antimicrobial activity against Methicillin sensitive Staphylococcus aureus assessed as bacterial growth inhibition incubated for 18 hrs
[13] = system: Staphylococcus aureus; assay: Antimicrobial activity against Staphylococcus aureus MTCC 442 assessed as bacterial growth inhibition incubated for 24 to 48 hrs; settings: time 24-48 hrs
[14] = system: Staphylococcus aureus; assay: Antimicrobial activity against Staphylococcus aureus MTCC 96 assessed as bacterial growth inhibition incubated for 24 to 48 hrs; settings: time 24-48 hrs
[15] = system: Staphylococcus aureus; assay: Antimicrobial activity against Methicillin-resistant Staphylococcus aureus ATCC 3167 assessed as bacterial growth inhibition

SMILES: C/C(=N/NC(=N)N)c1cnn(-c2ccc(C#Cc3ccccc3)cc2)c1C
- Activity [1]: 20%

SMILES: O=C(O)c1ccc(-n2cc(/C=N/c3ccc(Cl)cc3Cl)c(-c3ccc4ccccc4c3)n2)cc1
- MBC [2]: 6.25 mg/L (≈ 12.9 µM)
- MIC [2]: 0.78 mg/L (≈ 1.6 µM)

SMILES: Cc1ccc(Oc2c(C3N=C(N)NC(NCCc4ccccc4)=N3)c(C)nn2-c2ccc(Cl)cc2Cl)cc1 (stereo not drawn)
- MIC [3]: 0.5 mg/L (≈ 0.912 µM)

SMILES: Cc1ccc(Oc2c(C3N=C(N)NC(NCCc4ccccc4)=N3)c(C)nn2-c2ccc(Cl)cc2Cl)c(C)c1 (stereo not drawn)
- MIC [3]: 0.5 mg/L (≈ 0.889 µM)

SMILES: Cc1nn(-c2ccc(C#N)cc2)c2c1C(C(=O)O)CC=C(C(=O)O)N2 (stereo not drawn)
- MIC [4]: > 500 mg/L

SMILES: Cc1nn(-c2ccc(Cl)cc2Cl)c(Oc2cccc(Br)c2)c1C1N=C(N)NC(NCCc2ccccc2)=N1 (stereo not drawn)
- MIC [3]: 0.5 mg/L (≈ 0.815 µM)

SMILES: Cc1cc(NS(=O)(=O)c2ccc(N)cc2)no1 [SULFAMETHOXAZOLE]
- MIC [5]: 16 mg/L (≈ 63.2 µM)

SMILES: CCCn1ncc2c3c(C#N)c4ccccc4nc3ccc21
- MIC [5]: 3 mg/L (≈ 10.5 µM)

SMILES: O=C1CN(c2nnc(-c3cccc(Br)c3)s2)C(c2cn(-c3ccccc3)nc2-c2cccc([N+](=O)[O-])c2)S1 (stereo not drawn)
- MBC [5]: 156 mg/L (≈ 258 µM)

SMILES: CC1(C)S[C@@H]2[C@H](NC(=O)Cc3ccccc3)C(=O)N2[C@H]1C(=O)O [PENICILLIN G]
- MIC [5]: 0.06 mg/L (≈ 0.179 µM)

SMILES: COc1ccc(C(=O)Nc2c(C(N)=O)cnn2-c2ccc([N+](=O)[O-])cc2[N+](=O)[O-])cc1
- MIC [6]: 10 mg/L (≈ 23.5 µM)

- MIC [7]: < 1 mg/L
- MIC [8]: < 1 mg/L
- MIC [9]: < 1 mg/L
- MIC [10]: < 1 mg/L
SMILES: Clc1ccc(-c2nn(-c3ccccc3)cc2-c2nc3ccccn3c2Cc2ccccc2)cc1

SMILES: O=C(c1cc(C(F)(F)F)n[nH]1)c1cccc(Br)c1O
- MIC [11]: < 0.125 mg/L

SMILES: CC[C@H]1OC(=O)[C@H](C)[C@@H](O[C@H]2C[C@@](C)(OC)[C@@H](O)[C@H](C)O2)[C@H](C)[C@@H](O[C@@H]2O[C@H](C)C[C@H](N(C)C)[C@H]2O)[C@](C)(O)C[C@@H](C)C(=O)[C@H](C)[C@@H](O)[C@]1(C)O [ERYTHROMYCIN]
- MIC [6]: 32 mg/L (≈ 43.6 µM)

SMILES: CCCCn1ncc2c3c(C#N)c4ccccc4nc3ccc21
- MIC [5]: 2 mg/L (≈ 6.66 µM)

SMILES: Cc1onc(-c2ccccc2Cl)c1C(=O)N[C@@H]1C(=O)N2[C@@H]1SC(C)(C)[C@@H]2C(=O)O [CLOXACILLIN]
- MIC [6]: 94 mg/L (≈ 216 µM)

SMILES: C[C@H]1COc2c(N3CCN(C)CC3)c(F)cc3c(=O)c(C(=O)O)cn1c23.C[C@H]1COc2c(N3CCN(C)CC3)c(F)cc3c(=O)c(C(=O)O)cn1c23.O [LEVOFLOXACIN]
- MIC [12]: 0.125 mg/L

SMILES: O=C1CN(c2nnc(-c3cccc([N+](=O)[O-])c3)s2)C(c2cn(-c3ccccc3)nc2-c2cccc([N+](=O)[O-])c2)S1 (stereo not drawn)
- MBC [5]: 312 mg/L (≈ 547 µM)

- MIC [13]: > 50 mg/L
- MIC [14]: > 50 mg/L
SMILES: O=C(/C=C/c1cccc([N+](=O)[O-])c1)N1N=C(c2ccncc2)OC1c1cn(-c2ccccc2)nc1-c1ccc(F)cc1 (stereo not drawn)

SMILES: C/C(=N/NC1=NCCN1)c1cnn(-c2ccc(C#CC(C)(C)C)cc2)c1C
- Activity [1]: 62%

SMILES: O=C(c1cc(C(F)(F)F)n[nH]1)c1cc(Cl)cc(Cl)c1O
- MIC [11]: < 0.125 mg/L

SMILES: NC(=O)c1cnn(-c2ccc([N+](=O)[O-])cc2[N+](=O)[O-])c1NC(=O)c1cccc(Cl)c1
- MIC [6]: 45.3 mg/L (≈ 105 µM)

SMILES: CCn1ncc2c3c(C#N)c4ccc(Br)cc4nc3ccc21
- MIC [5]: 2 mg/L (≈ 5.69 µM)

SMILES: O=C(/C=C/c1ccc([N+](=O)[O-])cc1)N1N=C(c2ccncc2)OC1c1cn(-c2ccccc2)nc1-c1ccc(F)cc1 (stereo not drawn)
- MIC [13]: 12.5 mg/L (≈ 22.3 µM)
- MIC [14]: 12.5 mg/L (≈ 22.3 µM)

SMILES: CCCn1ncc2c3c(C#N)c4ccc(Br)cc4nc3ccc21
- MIC [5]: 1 mg/L (≈ 2.74 µM)

- MIC [7]: < 1 mg/L
- MIC [8]: < 1 mg/L
- MIC [9]: < 1 mg/L
- MIC [10]: < 1 mg/L
SMILES: COc1cccc(-c2nn(-c3ccccc3)cc2-c2nc3ccccn3c2Cc2ccccc2)c1OC

SMILES: COc1cc(/C=C/c2cc(/C=C/c3ccc(OCC(=O)N[C@H](C)c4ccccc4)c(OC)c3)[nH]n2)ccc1OCC(=O)N[C@H](C)c1ccccc1
- MIC [15]: 10 µM (≈ 6.87 µg/mL)

SMILES: Cc1nn(-c2ccc(Cl)cc2Cl)c(Oc2ccc(Br)cc2)c1C1N=C(N)NC(NCCc2ccccc2)=N1 (stereo not drawn)
- MIC [3]: 0.5 mg/L (≈ 0.815 µM)

SMILES: O=C(c1cc(C(F)(F)F)n[nH]1)c1cc(Cl)ccc1O
- MIC [11]: < 0.125 mg/L

SMILES: Cc1ccc(O)c(C(=O)c2cc(C(F)(F)F)n[nH]2)c1
- MIC [11]: < 0.125 mg/L

SMILES: Cn1ncc2c3c(C#N)c4ccc(Br)cc4nc3ccc21
- MIC [5]: 2 mg/L (≈ 5.93 µM)

SMILES: NC(=O)c1cnn(-c2ccc([N+](=O)[O-])cc2[N+](=O)[O-])c1NC(=O)c1ccc([N+](=O)[O-])cc1
- MIC [6]: 4 mg/L (≈ 9.06 µM)

SMILES: CCCC#Cc1ccc(-n2ncc(/C(C)=N\NC(=N)N)c2C)cc1
- Activity [1]: 74%

SMILES: Cc1nn(-c2ccc(Cl)cc2)c2c1C(C(=O)O)CC=C(C(=O)O)N2 (stereo not drawn)
- MIC [4]: > 500 mg/L
